According to PubChem BioAssay (NCI):
Converted amounts (≈) assume the structure as drawn. “And” between values parts separate entries of the source, which are not always exact repeats. Equal values may be shown once.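 Step 1: Grow cells in 96-well plates. Step 2: Expose to compound for 48 hours at 5 concentrations. Step 3: Interpolate endpoints linearly; if unreached, use highest concentration. GI50 is the concentration that inhibits growth by half. Definition used: TGI = concentration required for complete inhibition of growth.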 Where a SMILES comes first, the peptide text is derived from it. [ ]: non-standard residue; d: D form. The star is where a group is joined. NMeF = CN[CH](Cc1ccccc1)C(=O)O; NMeV = CN[CH](C(=O)O)C(C)C; Boc = CC(C)(C)OC(=O)*; OBn = c1ccc(CO*)cc1

How the values were obtained:
Test in all cases: growth of human tumour cells (NCI), 48 h
T-47D breast = system: T-47D breast
CAKI-1 renal = system: CAKI-1 renal
OVCAR-4 ovarian = system: OVCAR-4 ovarian
MCF7 breast = system: MCF7 breast
CCRF-CEM leukemia = system: CCRF-CEM leukemia
HS 578T breast = system: HS 578T breast
MALME-3M melanoma = system: MALME-3M melanoma
SNB-19 CNS = system: SNB-19 CNS
IGROV1 ovarian = system: IGROV1 ovarian
A498 renal = system: A498 renal
M14 melanoma = system: M14 melanoma

SMILES	TGI (T-47D breast) [µM]	TGI (CAKI-1 renal) [µM]	TGI (OVCAR-4 ovarian) [µM]	TGI (MCF7 breast)	TGI (CCRF-CEM leukemia) [µM]	TGI (HS 578T breast) [µM]	TGI (MALME-3M melanoma)	TGI (SNB-19 CNS)	TGI (IGROV1 ovarian) [µM]	GI50 (MCF7 breast) [µg/mL]	GI50 (MALME-3M melanoma) [µg/mL]	GI50 (SNB-19 CNS)	TGI (A498 renal) [µM]	TGI (M14 melanoma) [µM]	GI50 (CCRF-CEM leukemia)	GI50 (OVCAR-4 ovarian)	GI50 (IGROV1 ovarian)
S=C1NC2=C(CSC/C2=C\c2ccc(Cl)cc2)C(c2ccc(Cl)cc2)N1 (centres undefined)	> 100	> 100	> 100	> 100 µM	70.9	> 100	71.3 µM	> 100 µM	> 100								
Cc1nc2nc(C)n(CCN3CCOCC3)c(=O)c2c(-c2cccc([N+](=O)[O-])c2)c1C(=O)CCCCCCCCCCN1CCC(c2ccccc2)(c2ccccc2)CC1				3.65 µg/mL			4.22 µg/mL	4.3 µg/mL		1.67 (≈ 2.06 µM)	2.24 (≈ 2.75 µM)	2.28 µg/mL					
COC(=O)C1(C(=O)OC)N=C(C)OC1c1ccccc1O (centres undefined)	> 100	> 100	> 100	> 100 µM	> 100			> 100 µM	> 100				> 100	> 100			
Cn1c(=O)c2ccccc2[n+]2c(-c3cccc([N+](=O)[O-])c3)csc12	> 100	> 100	> 100	> 100 µM	> 100	83.3	> 100 µM	> 100 µM	> 100				> 100	> 100			
O=S1SC(=S)C2C=CC=NC21 (centres undefined)	58.9	> 100	> 100	38.4 µM	> 100	61.4	36.3 µM	87.9 µM	49.6				66.1	29.6			
CN1CCC2(c3ccccc3)CC(=O)/C(=C/c3ccc(Cl)c(Cl)c3)C1C2 (centres undefined)	> 41.5	13.8	7.21	17.3 µM	5.15	> 45.7	24.4 µM	5.32 µM	4.19				12.8	8.59			
Cc1ccc2[nH]c3c(c(=O)n(C)c(=O)n3C)c2c1	> 100	> 100	> 100	> 100 µM	> 100	> 100	> 100 µM	> 100 µM	> 100				> 100	> 100			
COc1ccc(N2C(=O)C(Cl)C2c2cc3cc(Br)ccc3nc2Cl)cc1 (centres undefined)	> 25	18.9	9.68	13.5 µM	14.7	> 25	10.1 µM	> 25 µM	10.6				> 25	11			
CCCCCCCCOC(=O)C12Oc3ccc(-c4ccc5c(c4O)C(O)=C4C(=O)CC(C)C(O)C4(C(=O)OCCCCCCCC)O5)c(O)c3C(O)=C1C(=O)CC(C)C2O (centres undefined)	> 100	64.3	> 100	44.9 µM	17.9	> 100	> 100 µM	36.8 µM	61.3				> 100	> 100			
COc1cc(S(=O)(=O)Nc2ccc(-c3csc(N4C(=O)C(C)SC4c4cccs4)n3)cc2)ccc1Cl (centres undefined)	27.3	> 100		> 100 µM	52.2	> 100	> 100 µM		> 100				> 100	> 100			
CCc1n[nH]c(=O)n1CC	> 100	> 100	> 100	> 100 µM	> 100	> 100	> 100 µM	> 100 µM	> 100				> 100				
CC(Br)CN1CCOCC1 (centres undefined)	> 100	> 100		> 100 µM		> 100	> 100 µM	> 100 µM	> 100				> 100	> 100			
CC(=O)Nc1cc(Cl)cc(Cl)c1O	> 100	> 100	> 100	> 100 µM	> 100	> 100	> 100 µM	> 100 µM	> 100				> 100	> 100			
C/C(O)=C(\C=N\C(=S)N=Nc1c(O)[nH]c2ccccc12)C(=O)Nc1ccccc1C	> 100	> 100	> 100					> 100 µM	> 100				> 100	> 100			
C/C(=C\COP(=O)(O)OP(=O)(O)O)CCCCCCOCc1ccccc1	> 100	> 100	> 100	> 100 µM	> 100	> 100	> 100 µM	> 100 µM	> 100				> 100	> 100			
CC(=O)[O-].CC(=O)[O-].O=C(N/N=C/c1cc(Cl)cc(Cl)c1[OH2+])c1ccncc1.[Mn+2]					2.15		18 µM	36.1 µM	10.7				41	13.6			
CC(=O)NS(=O)(=O)c1ccc(NCc2cccc3c(=O)c4ccc(Cl)cc4oc23)cc1	> 100	69.6	> 100	> 100 µM	> 86.7	97.7	> 93.5 µM	> 100 µM	> 100				> 100	> 100			
CC(C)C(NC(=O)OC(C)(C)C)C(=O)N(C)C(Cc1ccccc1)C(=O)N(C)C(C(=O)OCc1ccccc1)C(C)C (stereo not drawn) (Boc-Val-[NMeF]-[NMeV]-OBn; configuration not given here)					> 100		> 100 µM	> 100 µM	> 100			> 100 µM and 32.8 µM		> 100	17.8 µM and 39.1 µM		
c1ccc(C2=NN2c2ccccc2)cc1	> 100	> 100	> 100	> 100 µM	> 100		> 100 µM	> 100 µM	> 100				> 100	> 100			
CCOC(=O)c1ncn(CCc2ccc(Cl)cc2)c1C		> 100	> 100	> 100 µM	> 100	> 100	> 100 µM	> 100 µM	> 100				> 100	> 100			
NS(=O)(=O)c1nnc(NS(=O)(=O)c2ccccc2[N+](=O)[O-])s1	> 100	> 100	> 100	> 100 µM		> 100	> 100 µM	> 100 µM	> 100				> 100	> 100			
C=C(C)C1CC[C@@](C)(O)[C@H](C#N)C1 (some centres undefined)	> 100	> 100	> 100	> 100 µM	> 100	> 100	> 100 µM	> 100 µM					> 100	> 100			

SMILES	TGI (T-47D breast) [µM]	TGI (CAKI-1 renal) [µM]	TGI (OVCAR-4 ovarian) [µM]	TGI (MCF7 breast)	TGI (CCRF-CEM leukemia) [µM]	TGI (HS 578T breast) [µM]	TGI (MALME-3M melanoma)	TGI (SNB-19 CNS)	TGI (IGROV1 ovarian) [µM]	GI50 (MCF7 breast) [µg/mL]	GI50 (MALME-3M melanoma) [µg/mL]	GI50 (SNB-19 CNS)	TGI (A498 renal) [µM]	TGI (M14 melanoma) [µM]	GI50 (CCRF-CEM leukemia)	GI50 (OVCAR-4 ovarian)	GI50 (IGROV1 ovarian)
O=C(OCc1ccccc1)C(Cc1ccc(OCc2ccccc2)cn1)NC(=O)C(F)(F)F (centres undefined)		> 100	> 100			> 100	> 100 µM	> 100 µM	> 100				> 100				
COC(=O)/C=C/CCC#Cc1ccccc1C#CCC/C=C/C(=O)OC	97.9	10.1	> 100	> 100 µM	24.3		> 100 µM	> 100 µM	98.2				> 100	> 100			
CC1(C)OCC(CO)(CO)CO1	> 100		> 100	> 100 µM	> 100	> 100		> 100 µM					> 100	> 100			
O=C(c1cscc1CCc1ccccc1)c1cscc1CCc1ccccc1	> 100	> 100	> 100	> 100 µM	> 100		> 100 µM	> 100 µM	> 100				> 100	> 100			
CSc1c(C#N)c(=O)n(N)c2c1c(C)nn2-c1ccccc1	81	43	96.1	39.2 µM	76.3	> 100	70.2 µM	> 100 µM					65.8	> 100			
O=c1[nH]c(=O)c2c([nH]1)[nH]c1ccc(Br)cc12	> 100	> 100		> 100 µM	> 100	> 100	> 100 µM	> 100 µM	> 100				> 100	> 100			
C=C(C)[C@H]1CC[C@@]23O[C@@H]2[C@@H](C[C@@]2(C)CC(=O)[C@H](CC(=O)C1)O2)OC(=O)[C@@]12CC[C@H](C(=C)C)CC(=O)C[C@H]4O[C@](C)(CC4=O)C[C@@H](OC3=O)[C@@H]1O2	> 100	> 100	> 100	> 100 µM	> 100		> 100 µM	> 100 µM	> 100				> 100	> 100			
COC(=O)[C@@H]1C[C@@H](O)CN1C(=O)c1ccc([N+](=O)[O-])cc1[N+](=O)[O-]	> 100	> 100	> 100	> 100 µM	> 100	> 100		> 100 µM	> 100				> 100	> 100			
C=C1CC[C@@H]2C13[C@@H]1[C@H](CC(=O)[C@@]23C)C1(C)C (some centres undefined)	> 100	> 100	> 100	> 100 µM		> 100	> 100 µM		> 100				> 100	> 100			
O=c1[nH]c2c(c(=O)[nH]1)SC(c1ccccc1)C2 (centres undefined)		> 100	> 100	> 100 µM	> 100	> 100	> 100 µM	> 100 µM	> 100				> 100	> 100			
Cc1cc(C)c(NS(=O)c2cccc(C(F)(F)F)c2)c(C)c1 (centres undefined)	> 100			> 100 µM	> 100		> 100 µM	> 100 µM					> 100	> 100			
CCOC(=O)[C@@H]1[C@@H](c2ccccc2)N(C)O[C@@]1(c1ccccc1)C(F)(F)F	> 100	> 100	> 100		60.7	> 100	> 100 µM	> 100 µM	> 100				> 100	> 100			
COC(=O)[C@@H]1CN(C(=O)CCc2ccccc2)C(=O)N1	> 100	> 100	> 100		> 100	> 100	> 100 µM	> 100 µM	> 100				> 100	> 100			
Cc1ccc(N2C(=O)C3c4[nH]c5ccc(C)cc5c4C4CCC(C(C)(C)C)CC4C3C2=O)cc1 (centres undefined)	25.9	45.3	20.9	28.7 µM	26.7	44	44.4 µM	80.5 µM	36.5					> 100			
CC(C)(C)OC(=O)N(O)[C@@H]1CC[C@H](n2cnc3c(N)ncnc32)C1	> 100		> 100	> 100 µM	> 100	> 100	> 100 µM	> 100 µM	> 100				> 100	> 100			
O=Cc1ccc2ccocc1-2	> 100	> 100	> 100	> 100 µM	> 100	> 100		> 100 µM	> 100				> 100	> 100			
Clc1sc(Cl)c2c1[C@H](Cl)C[C@@H]2Cl	72.9	44.5	52.7	> 100 µM	> 100	44.1	59.6 µM		38.6				> 100	37.4			
CNc1cc([N+](=O)[O-])ccc1C(=O)N1CCC[C@H]1CO	> 100			> 100 µM				> 100 µM	> 100				> 100	> 100			
CN(C)c1ccc(C=Nc2ccc(-c3nc4ccccc4s3)cc2)cc1	73.9	> 100	> 100	76.5 µM	10.9		95.7 µM	> 100 µM	> 100				37.1	> 100			
CC(=O)OCC1OC(n2c(C)c(C(C)=O)c(-c3ccco3)c(C#N)c2=S)C(OC(C)=O)C(OC(C)=O)C1OC(C)=O (centres undefined)	> 100		> 100	> 100 µM	> 100		> 100 µM	> 100 µM	> 100				> 100	> 100		> 100 µM and 37.8 µM	> 100 µM and 43.6 µM
Clc1cccc(-c2nc3cccc4c3n2Cc2ncccc2-4)c1	> 100	> 100	> 100	> 100 µM	> 100		> 100 µM	> 100 µM	> 100				> 100	> 100			
